Assay results as given in PMC6270905, “Anti-Obesity Effects of Hispidin and Alpinia zerumbet Bioactives in 3T3-L1 Adipocytes” (Molecules, 2014).
Read-outs that look alike come from different tables or passages of the source.

Molecular target: T1, pancreatic lipase (Sus scrofa, UniProt P00591)
T1 construct: gene PNLIP
T1 sequence (P00591 1-450): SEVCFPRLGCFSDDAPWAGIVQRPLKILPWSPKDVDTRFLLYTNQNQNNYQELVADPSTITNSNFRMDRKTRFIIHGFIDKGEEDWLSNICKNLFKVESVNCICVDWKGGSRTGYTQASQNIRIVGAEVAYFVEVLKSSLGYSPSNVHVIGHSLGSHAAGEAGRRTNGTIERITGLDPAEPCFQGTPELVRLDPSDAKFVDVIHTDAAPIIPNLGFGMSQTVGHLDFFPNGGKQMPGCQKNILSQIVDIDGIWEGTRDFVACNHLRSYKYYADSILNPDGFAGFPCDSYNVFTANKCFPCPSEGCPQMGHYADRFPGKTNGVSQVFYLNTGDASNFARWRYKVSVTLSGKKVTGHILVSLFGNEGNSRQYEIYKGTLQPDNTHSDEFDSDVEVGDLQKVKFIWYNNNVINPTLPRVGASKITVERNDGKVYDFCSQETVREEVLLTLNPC
Test: p-nitrophenyl butyrate hydrolysis by porcine pancreatic lipase (type II), absorbance at […] nm
Assay type: biochemical

IC50 (read-out: IC50 (converted)) [µM]	Structure (SMILES)	IC50 [µM]
	COc1cc(CCc2ccccc2)oc(=O)c1 [DDK, dihydro-5,6-dehydrokawain]	36.5
326	COc1cc(/C=C/c2ccccc2)oc(=O)c1 [DK, 5,6-dehydrokawain]	
76.4	O=c1cc(O)cc(/C=C/c2ccc(O)c(O)c2)o1 [hispidin, 6-(3,4-dihydroxylstyryl)-4-hydroxy-2-pyrone]	
